System: fibrin clot
Assay: Structural profile of fibrin clot, Protocol C on STA-R with tissue factor and plasminogen activator (TF+t-PA)
Assay type: biochemical
Protocol: Protocol C (With t-PA, Method on STA-R® with Tissue Factor and Plasminogen Activator):
To 8 cuvettes of the STA-R® Evolution Expert Series automated device (Stago), are added, simultaneously by the instrument: • 200 μl of a sample of pure plasma, • 50 μl of a [TF 2 to 5 pM final concentration+PL 4 μM final concentration+tPA 0.1 to 0.2 μg/ml final concentration] mixture.
The automated device agitates by means of the arm, and carries out an incubation for 300 seconds at 37° C.
It then adds 50 μl of CaCl2 at a final concentration of 16.7 mM, and agitates by means of the needle of the initiating reagent.
Finally, the automated device measures the number of protofibrils at the 2 wavelengths of 540 nm and 780 nm as a function of time for 30 minutes.
To 8 cuvettes of the STA-R® Evolution Expert Series automated device (Stago), are added, simultaneously by the instrument: • 200 μl of sample of pure plasma from 9 patients with normal hemostatis results, of a frozen plasma deficient in PAI-1, of 3 control plasmas at 0, 20 and 40 AU/ml of PAI-1, of a protein S-depleted plasma, of a TFPI-depleted plasma and of 3 plasmas with an overload of rivaroxaban at 0, 100 and 200 ng/ml, • 50 μl of a [TF 2 to 5 pM final concentration+PL 4 μM final concentration+t-PA 150 ng/ml] mixture.
It then adds 50 μl of CaCl2 at a final concentration of 16.7 mM, and agitates by means of the needle.

Compound: O=C(NC[C@H]1CN(c2ccc(N3CCOCC3=O)cc2)C(=O)O1)c1ccc(Cl)s1 [rivaroxaban]
- downward slope of the protofibril plateau (plasma containing rivaroxaban, TF + t-PA 150 ng/ml): all the greater the faster the lysis
- protofibril plateau (duration), reflecting the stability of the clot (plasmas with an overload of rivaroxaban at 0, 100 and 200 ng/ml, TF 2 to 5 pM, t-PA 150 ng/ml, 30 minutes): shortened proportionally to the concentration
